Here are results for 15 molecules from US20210309860A1, “ANTHRAQUINONIC DERIVATIVES AND THEIR USE AS COLOURING AGENTS” (PILI, priority 2018, published 2021).

The logP is a log measure of how a compound divides between an organic and an aqueous phase.

Series [1] in a line: UV-Visible analysis in methanol. Format: physicochemical. As to conditions: for Colour: methanol solution; for log ε / λmax visible / L1/2: methanol; for log ε: log of average molar extinction coefficient, characterizes the strength of the colour; for λmax visible: maximum absorption in visible spectra 400-800 nm, 1 cm quartz cuvette, characterizes the colour; for L1/2: width measured at A/2, characterizes the brilliance of the colour. The method, then: UV-Visible analysis was carried on a Genesys10 UV photometer and recorded with the help of “VisionLite Scan” software. For each molecule, a certain amount was weighed with a precision balance and fully dissolved (under sonication if necessary) in methanol to obtain a mother solution at 1 mg/mL. Serial dilutions were performed to obtain samples in a range from 0.0025 mg/mL to 0.5 mg/mL. Samples were analyzed from 190 to 800 nm in a 1 cm quartz cuvette. For each concentration, the wavelength of maximum absorption in the visible spectra (400-800 nm) was recorded with a precision of 2 nm, and the width was measured at A/2. Additionally, molar extinction coefficient ε was calculated for each sample and the log of the average value presented. λmax visible characterizes the colour, L1/2 characterizes the brilliance of the colour, ε characterizes the strength of the colour.

Series [2] can be described thus: Experimental log P octanol/water by UV-Vis spectroscopy assay. The following applies: octanol/water (1:1), pH 7.
Procedure: (§1) In order to validate a prediction model, the experimental and theoretical log P of five anthraquinones were assessed. Theoretical values were determined using Chemicalize's online software from ChemAxon, and experimental values were determined by UV-Vis spectroscopy assay using the protocol below.
(§2) A 1:1 mixture of octanol and water (pH=7) was prepared 24 hours before the assay in a reparatory funnel. A precise amount of the product was then added, and sonicated until complete dissolution. The phases were then vigorously stirred and left for 6 hours. The two phases were then separated, the organic phase diluted and analysed by UV spectrophotometry using a calibration curve previously carried out. The aqueous phase was acidified and evaporated. The residue was dissolved in octanol for analysis in UV-Vis spectrophotometry with the same method.
For series [3] the following is noted: pH 7.
Procedure: as §1, §2

Take `CC(=O)Nc1cccc(Nc2cc(C)c3c(c2)C(=O)c2cccc(Nc4cccc(NC(C)=O)c4)c2C3=O)c1` [Compound 11, N-(3-((6-(3-acetamidoanilino)-8-methyl-9,10-dioxo-1-anthryl)amino)phenyl) Acetamide]: in series [1], the Colour entry is listed as “Purple”, the “log ε” value was 2.8, the λmax visible worked out at 510 nm and the L1/2 is recorded as 128 nm.

As for `Cc1cc(O)c(N)c2c1C(=O)c1c(O)cccc1C2=O` [Compound 17b, 1-amino-2,5-dihydroxy-4-methyl-anthracene-9,10-dione], in series [1], the Colour entry was “Purple”, the “log ε” value was found to be 3.41, the λmax visible stood at 498 nm and the L1/2 worked out at 100 nm.

On to `Cc1cc(Nc2ccccc2)cc2c1C(=O)c1c(Nc3ccccc3)cccc1C2=O` [Compound 10, 3,8-dianilino-1-methyl-anthracene-9,10-dione], for which, in series [1], the Colour result is “Purple/red purplish”, the “log ε” value was 2.72, the λmax visible was 496 nm and the L1/2 is 152 nm.

Take `Cc1c(C(=O)O)c(O)cc2c1C(=O)c1c(O)cccc1C2=O` [Compound 7, 3,8-dihydroxy-1-methyl-9,10-dioxo-anthracene-2-carboxylic acid, reference compound]: in series [1], the Colour result is recorded as “Yellow”, the “log ε” value was found to be 3.9, the λmax visible amounted to 408 nm and the L1/2 came out at 86 nm.

With `O=C1c2cccc(O)c2C(=O)c2c(O)cccc21` [1,8-dihydroxy anthraquinone], the log partition coefficient (logP) at 6 h in series [2] came to 3.4.

For the molecule `Cc1cc(N)cc2c1C(=O)c1c(O)cccc1C2=O` [Compound 8, 3-amino-8-hydroxy-1-methyl-anthracene-9,10-dione], in series [1], the Colour result was “Orange”, the “log ε” value stood at 2.44, the λmax visible was 452 nm and the L1/2 is 142 nm.

Consider `Cc1cc(O)cc2c1C(=O)c1c(O)cccc1C2=O` [Compound 5, 3,8-dihydroxy-1-methyl-anthracene-9,10-dione, reference compound], for which, in series [1], the Colour entry is “Yellow”, the “log ε” value is recorded as 3.5, the λmax visible worked out at 408 nm and the L1/2 is 94 nm. In series [2], this molecule showed a logP at 6 h of 3.2.

Take `Cc1ccc(S(=O)(=O)Oc2cccc3c2C(=O)c2c(C)cc(Nc4ccccc4)cc2C3=O)cc1` [Compound 14, (6-anilino-8-methyl-9,10-dioxo-1-anthryl)-4-methylbenzenesulfonate]: in series [1], the Colour entry is “Red-purple”, the “log ε” value worked out at 3.12, the λmax visible is 508 nm and the L1/2 turned out to be 104 nm.

For the molecule Quinizarin, the “Measured logP” value in series [3] turned out to be 3.7.

In turn, `Cc1cc(O)c2c(c1)C(=O)c1cccc(O)c1C2=O` [Chrysophanic acid] gave a log partition coefficient (logP) at 6 h in series [2] of 4.

Turning to `Cc1cc(NC2CCCCC2)cc2c1C(=O)c1c(NC3CCCCC3)cccc1C2=O` [Compound 12, 3,8-bis(cyclohexylamino)-1-methyl-anthracene-9,10-dione], in series [1], the Colour result was “Purple”, the “log ε” value was 2.46, the λmax visible stood at 524 nm and the L1/2 was 94 nm.

As to `Cc1cc(Nc2ccccc2)cc2c1C(=O)c1c(O)cccc1C2=O` [Compound 9, 3-anilino-8-hydroxy-1-methyl-anthracene-9,10-dione], in series [1], the Colour entry is ““Carmine-like” red”, the “log ε” value stood at 2.25, the λmax visible is reported as 480 nm and the L1/2 is reported as 104 nm.

For `Cc1c(C(=O)O)c(O)c(N)c2c1C(=O)c1c(O)ccc(N)c1C2=O` [Compound 19b, 4,5-diamino-3,8-dihydroxy-1-methyl-9,10-dioxo-anthracene-2-carboxylic acid], in series [1], the Colour entry is given as “Purple”, the “log ε” value is 3.25, the λmax visible is on record as 518 nm and the L1/2 stood at 106 nm.

Consider `COc1cc(C)c2c(c1)C(=O)c1cccc(O)c1C2=O` [Compound 6, 8-hydroxy-3-methoxy-1-methyl-anthracene-9,10-dione, reference compound], for which, in series [1], the Colour result is given as “Stronger yellow”, the “log ε” value came out at 3.62, the λmax visible is 406 nm and the L1/2 came to 81 nm.

As for `O=C1c2ccccc2C(=O)c2c1ccc(O)c2O` [Alizarin], the log partition coefficient (logP) at 6 h in series [2] amounted to 2.8.
